Results published in patent US11931424B2, “Combination MCL-1 inhibitors with anti-body drug conjugates” (Gilead Sciences, Inc., priority 2021, dated 2024).
Where a name gives a salt, the structure may show the parent alone.

System: panel of breast cancer cell lines
Assay: Compound A with targeted agents and chemotherapies, 72-hour in vitro proliferation assays
Assay type: cell-based
Conditions: 72-hour proliferation
[1] = AU565 cell line, compound A × partner
[2] = BT-20 cell line, compound A × partner
[3] = CAL-51 cell line, compound A × partner
[4] = CAL-85-1 cell line, compound A × partner
[5] = CAL-120 cell line, compound A × partner
[6] = CAL-148 cell line, compound A × partner
[7] = CAMA-1 cell line, compound A × partner
[8] = DU-4475 cell line, compound A × partner
[9] = EVSA-T cell line, compound A × partner

Nc1ccn([C@@H]2O[C@H](CO)[C@@H](O)C2(F)F)c(=O)n1 [Gemcitabine Hydrochloride]
Best CI [1]: 0.56
Bliss Volume [1]: 10.13
HSA volume [1]: 3.57
Loewe Volume [1]: 2.71
Synergy Score [1]: 9.40
Best CI [2]: 0.70
Bliss Volume [2]: 4.35
HSA volume [2]: 4.94
Loewe Volume [2]: 3.32
Synergy Score [2]: 11.12
Best CI [3]: 0.47
Bliss Volume [3]: 3.26
HSA volume [3]: 3.22
Loewe Volume [3]: 3.49
Synergy Score [3]: 5.10
Best CI [4]: 0.58
Bliss Volume [4]: 9.98
HSA volume [4]: 8.91
Loewe Volume [4]: 7.81
Synergy Score [4]: 10.96
Best CI [5]: 0.21
Bliss Volume [5]: −5.00
HSA volume [5]: −5.87
Loewe Volume [5]: −4.98
Synergy Score [5]: 0.88
Best CI [6]: 0.36
Bliss Volume [6]: 19.19
HSA volume [6]: 20.88
Loewe Volume [6]: 20.22
Synergy Score [6]: 35.99
Best CI [7]: 0.06
Bliss Volume [7]: 26.55
HSA volume [7]: 18.50
Loewe Volume [7]: 18.89
Synergy Score [7]: 40.36
Bliss Volume [8]: −3.76
HSA volume [8]: −3.58
Loewe Volume [8]: −2.68
Synergy Score [8]: 0.17
Best CI [9]: 1.07
Bliss Volume [9]: 9.65
HSA volume [9]: 2.02
Loewe Volume [9]: 1.29
Synergy Score [9]: 5.11
Best CI (HCC38, compound A × partner): 0.51
Bliss Volume (HCC38, compound A × partner): 21.72
HSA volume (HCC38, compound A × partner): 8.18
Loewe Volume (HCC38, compound A × partner): 6.75
Synergy Score (HCC38, compound A × partner): 14.50
Best CI (HCC70, compound A × partner): 0.26
Bliss Volume (HCC70, compound A × partner): 18.66
HSA volume (HCC70, compound A × partner): 18.52
Loewe Volume (HCC70, compound A × partner): 17.52
Synergy Score (HCC70, compound A × partner): 26.37
Best CI (HCC1143, compound A × partner): 0.15
Bliss Volume (HCC1143, compound A × partner): 4.32
HSA volume (HCC1143, compound A × partner): 8.39
Loewe Volume (HCC1143, compound A × partner): 7.81
Synergy Score (HCC1143, compound A × partner): 9.41
Best CI (HCC1569, compound A × partner): 0.68
Bliss Volume (HCC1569, compound A × partner): 3.74
HSA volume (HCC1569, compound A × partner): 6.80
Loewe Volume (HCC1569, compound A × partner): 6.28
Synergy Score (HCC1569, compound A × partner): 5.52
Best CI (HCC1806, compound A × partner): 0.13
Bliss Volume (HCC1806, compound A × partner): 17.89
HSA volume (HCC1806, compound A × partner): 18.06
Loewe Volume (HCC1806, compound A × partner): 17.74
Synergy Score (HCC1806, compound A × partner): 30.81
Best CI (HCC1937, compound A × partner): 0.45
Bliss Volume (HCC1937, compound A × partner): 2.34
HSA volume (HCC1937, compound A × partner): 0.77
Loewe Volume (HCC1937, compound A × partner): 2.36
Synergy Score (HCC1937, compound A × partner): 2.33
Best CI (HCC1954, compound A × partner): 0.28
Bliss Volume (HCC1954, compound A × partner): 3.78
HSA volume (HCC1954, compound A × partner): 5.17
Loewe Volume (HCC1954, compound A × partner): 5.09
Synergy Score (HCC1954, compound A × partner): 7.13
Best CI (HCC2218, compound A × partner): 0.36
Bliss Volume (HCC2218, compound A × partner): 5.46
HSA volume (HCC2218, compound A × partner): 4.02
Loewe Volume (HCC2218, compound A × partner): 2.80
Synergy Score (HCC2218, compound A × partner): 6.54
Best CI (HDQ-P1, compound A × partner): 0.40
Bliss Volume (HDQ-P1, compound A × partner): −3.49
HSA volume (HDQ-P1, compound A × partner): −0.19
Loewe Volume (HDQ-P1, compound A × partner): 0.42
Synergy Score (HDQ-P1, compound A × partner): 2.05
Best CI (HMC-1-8, compound A × partner): 0.19
Bliss Volume (HMC-1-8, compound A × partner): 24.97
HSA volume (HMC-1-8, compound A × partner): 9.34
Loewe Volume (HMC-1-8, compound A × partner): 8.40
Synergy Score (HMC-1-8, compound A × partner): 17.19
Best CI (JIMT-1, compound A × partner): 0.05
Bliss Volume (JIMT-1, compound A × partner): 4.37
HSA volume (JIMT-1, compound A × partner): 3.74
Loewe Volume (JIMT-1, compound A × partner): 3.50
Synergy Score (JIMT-1, compound A × partner): 1.80
Synergy Score (MCF7 cells, Compound A × partner agent): 11.61
